{
  "source": "patent US20230332203A1",
  "about": "“RAPID ANTIBIOTIC SUSCEPTIBILITY TESTING” (IOWA STATE UNIVERSITY RESEARCH FOUNDATION, INC., priority 2022, published 2023)",
  "key": {"[1]": {"system": "Staphylococcus aureus 25923 (susceptible)", "assay": "Microdroplet culture with D2O labeling, average mass of PG 32:0 by MALDI-MS (Orbitrap and Biotyper)", "type": "cell-based", "conditions": "increasing methicillin concentration, 20% D2O, 4 hours", "protocol": "(§1) The disclosed method was tested using the Bruker Biotyper and the results were compared to data using the method that was previously established on an Orbitrap mass spectrometer. A common cell membrane lipid, phosphatidylglycerol (PG) 32:0 was used as an indicator. Since a higher average mass is indicative of more growth, a reduced average mass indicates susceptibility to methicillin. The Biotyper is an economical and more accessible instrument but has less resolution and more error in the measurements. However, data from the Biotyper results in the same conclusions when compared to data from the Orbitrap. […]\n(§2) μFocus samples were analyzed in negative ion mode using an Orbitrap Q Exactive HF mass spectrometer (Thermo Scientific, San Jose, CA) with a Spectroglyph MALDI source (Spectroglyph, Kennewick, WA) equipped with a 349 nm laser (Explorer One; Spectra Physics, Milpitas, CA) using a 500 Hz repetition rate and ˜4 μJ per shot. Samples were analyzed at 120,000 resolving power at m/z 200. Spots were analyzed using 60 μm spatial resolution to ensure a good representation of the sample and resulting spectra were averaged in Xcalibur. Masslists from averaged spectra were then exported to .csv files and average mass of membrane lipids were calculated using a custom Python script. […]"}, "[2]": {"system": "methicillin-resistant Staphylococcus aureus 33591", "assay": "Microdroplet culture with D2O labeling, average mass of PG 32:0 by MALDI-MS (Orbitrap and Biotyper)", "type": "cell-based", "conditions": "range of methicillin concentrations, 20% D2O, 4 hours", "protocol": "as §1, §2"}},
  "data": [
    {"smiles": "COc1cccc(OC)c1C(=O)N[C@@H]1C(=O)N2[C@@H]1SC(C)(C)[C@@H]2C(=O)O", "note": "[methicillin]", "values": [
      {"measurement": "effect on average mass of PG 32:0", "setting": "[1]", "result": "constant decrease"},
      {"measurement": "effect on average mass of PG 32:0", "setting": "[2]", "result": "does not decrease the average mass significantly"}
    ]}
  ]
}
